Experimental data as given in ChEMBL document CHEMBL1201862, “PubChem BioAssay data set” (2004).
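1) Cells in 96-well plates. 2) Compound, 48 h, 5 concentrations. 3) Linear interpolation between surrounding doses. 4) Unreached endpoint = highest concentration. Here, GI50 denotes the concentration required for 50% inhibition of growth.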 The source made the active and inactive calls. Rule as the data show it: active = GI50 up to about 1.1 µM and inactive = higher.

What was measured:
Assay in all cases: NCI anticancer screen, dose series, 48 h
Malme-3M = system: Malme-3M
EKVX = system: EKVX
SK-MEL-28 = system: SK-MEL-28
T47D = system: T47D
SF-539 = system: SF-539
MDA-N = system: MDA-N
SW-620 = system: SW-620
TK-10 = system: TK-10
M14 = system: M14
HOP-92 = system: HOP-92
SNB-19 = system: SNB-19
A498 = system: A498
SK-MEL-2 = system: SK-MEL-2
OVCAR-8 = system: OVCAR-8
HT-29 = system: HT-29
U-251 = system: U-251
NCI-H460 = system: NCI-H460
HCT-116 = system: HCT-116
SNB-75 = system: SNB-75
K562 = system: K562
CCRF-CEM = system: CCRF-CEM
MCF7 = system: MCF7
RPMI-8226 = system: RPMI-8226
SR = system: SR
UO-31 = system: UO-31
RXF 393 = system: RXF 393
NCI-H226 = system: NCI-H226
MDA-MB-231 = system: MDA-MB-231
A549 = system: A549
OVCAR-5 = system: OVCAR-5
NCI-H522 = system: NCI-H522
HOP-62 = system: HOP-62
BT-549 = system: BT-549
MDA-MB-435 = system: MDA-MB-435
OVCAR-4 = system: OVCAR-4
SN12C = system: SN12C
SF-295 = system: SF-295
PC-3 = system: PC-3
DU-145 = system: DU-145
UACC-62 = system: UACC-62
SK-OV-3 = system: SK-OV-3
NCI-H23 = system: NCI-H23
HL-60 = system: HL-60
KM12 = system: KM12
NCI/ADR-RES = system: NCI/ADR-RES
SK-MEL-5 = system: SK-MEL-5
Hs-578T = system: Hs-578T
CAKI-1 = system: CAKI-1
LOX IMVI = system: LOX IMVI
786-0 = system: 786-0
MOLT-4 = system: MOLT-4
UACC-257 = system: UACC-257
HCT-15 = system: HCT-15
SF-268 = system: SF-268
IGROV-1 = system: IGROV-1
ACHN = system: ACHN
HCC 2998 = system: HCC 2998
COLO 205 = system: COLO 205
OVCAR-3 = system: OVCAR-3
DMS-273 = system: DMS-273
LXFL 529 = system: LXFL 529
DMS-114 = system: DMS-114
M19-MEL = system: M19-MEL
HOP-18 = system: HOP-18
DLD-1 = system: DLD-1
SNB-78 = system: SNB-78

Measured: GI50

CCCCNc1nc2ccccc2c2c1ncn2CC(C)C
inactive: Malme-3M > 100 µM | EKVX > 100 µM | SK-MEL-28 > 100 µM | T47D > 100 µM | SF-539 > 100 µM | MDA-N > 100 µM | SW-620 > 100 µM | TK-10 > 100 µM | M14 > 100 µM | HOP-92 > 100 µM | SNB-19 > 100 µM | A498 > 100 µM | SK-MEL-2 > 100 µM | OVCAR-8 > 100 µM | HT-29 > 100 µM | U-251 > 100 µM | NCI-H460 > 100 µM | HCT-116 > 100 µM | SNB-75 > 100 µM | K562 > 100 µM | CCRF-CEM > 100 µM | MCF7 > 100 µM | RPMI-8226 > 100 µM | SR > 100 µM | UO-31 > 100 µM | RXF 393 > 100 µM | NCI-H226 > 100 µM | MDA-MB-231 > 100 µM | A549 > 100 µM | OVCAR-5 > 100 µM | NCI-H522 > 100 µM | HOP-62 > 100 µM | BT-549 > 100 µM | MDA-MB-435 > 100 µM | OVCAR-4 > 100 µM | SN12C > 100 µM | SF-295 > 100 µM | PC-3 > 100 µM | DU-145 > 100 µM | UACC-62 > 100 µM | SK-OV-3 > 100 µM | NCI-H23 > 100 µM | HL-60 > 100 µM | KM12 > 100 µM | NCI/ADR-RES > 100 µM | SK-MEL-5 > 100 µM | Hs-578T > 100 µM | CAKI-1 > 100 µM | LOX IMVI > 100 µM | 786-0 > 100 µM | MOLT-4 > 100 µM | UACC-257 > 100 µM | SF-268 > 100 µM | IGROV-1 > 100 µM | ACHN > 100 µM | HCC 2998 > 100 µM | COLO 205 > 100 µM | OVCAR-3 > 100 µM
> 100 µM: HCT-15

O=C1C(=O)N(C(=O)c2ccc(Cl)c(Cl)c2)c2ccc(Cl)cc21
inactive: EKVX 74 µM | SK-MEL-28 > 100 µM | SF-539 > 100 µM | SW-620 92 µM | TK-10 > 100 µM | M14 > 100 µM | SNB-19 > 100 µM | A498 19.4 µM | OVCAR-8 > 100 µM | HT-29 > 100 µM | U-251 > 100 µM | DMS-273 > 100 µM | NCI-H460 89.7 µM | SNB-75 31.8 µM | K562 59.3 µM | CCRF-CEM 38.8 µM | LXFL 529 71.4 µM | RPMI-8226 35.6 µM | SR 89.7 µM | UO-31 > 100 µM | RXF 393 > 100 µM | NCI-H226 > 100 µM | A549 > 100 µM | OVCAR-5 > 100 µM | DMS-114 27.1 µM | M19-MEL 18.8 µM | OVCAR-4 64.6 µM | SF-295 > 100 µM | HOP-18 > 100 µM | UACC-62 > 100 µM | SK-OV-3 > 100 µM | NCI-H23 > 100 µM | HL-60 20.3 µM | DLD-1 73.5 µM | KM12 > 100 µM | SK-MEL-5 > 100 µM | LOX IMVI 44.9 µM | 786-0 > 100 µM | MOLT-4 43.9 µM | SF-268 > 100 µM | IGROV-1 > 100 µM | ACHN > 100 µM | SNB-78 > 100 µM | COLO 205 > 100 µM | OVCAR-3 56.6 µM

Oc1ccc(/C=C\c2nnc(/C=C\c3ccc(O)c(O)c3)s2)cc1O
3.85 µM: HCT-15
inactive: Malme-3M 2.03 µM | EKVX 16.6 µM | SK-MEL-28 7.45 µM | T47D 2.35 µM | SF-539 3.36 µM | MDA-N 4.68 µM | SW-620 1.49 µM | TK-10 6.53 µM | M14 6.1 µM | HOP-92 5.07 µM | SNB-19 6.07 µM | A498 9.16 µM | SK-MEL-2 11.7 µM | OVCAR-8 4.56 µM | HT-29 36.1 µM | U-251 4.07 µM | NCI-H460 4.07 µM | HCT-116 3.26 µM | SNB-75 5.26 µM | K562 1.21 µM | MCF7 3 µM | RPMI-8226 1.32 µM | SR 1.91 µM | UO-31 3.38 µM | RXF 393 5.16 µM | NCI-H226 7.73 µM | MDA-MB-231 20 µM | A549 6.31 µM | OVCAR-5 > 48.6 µM | HOP-62 8.85 µM | BT-549 7.19 µM | MDA-MB-435 3.78 µM | OVCAR-4 4.34 µM | SN12C 5.98 µM | SF-295 12.2 µM | PC-3 8.97 µM | DU-145 7.05 µM | UACC-62 3.82 µM | SK-OV-3 13.6 µM | NCI-H23 3.34 µM | KM12 5.45 µM | NCI/ADR-RES 7.67 µM | SK-MEL-5 3.2 µM | Hs-578T 3.73 µM | CAKI-1 5.14 µM | LOX IMVI 5.46 µM | 786-0 5.97 µM | UACC-257 8.34 µM | SF-268 2.89 µM | IGROV-1 4.09 µM | ACHN 3.69 µM | HCC 2998 8.32 µM | COLO 205 8.26 µM | OVCAR-3 3.69 µM
active: CCRF-CEM 0.179 µM | NCI-H522 0.875 µM | HL-60 0.853 µM | MOLT-4 1.08 µM

O=C(Oc1ccccn1)c1cc2cc(CCl)ccc2oc1=O
39.4 µM: HCT-15
inactive: Malme-3M 15.7 µM | EKVX 36.8 µM | SK-MEL-28 49 µM | T47D 32.7 µM | SF-539 50.5 µM | MDA-N 43.5 µM | SW-620 30.8 µM | TK-10 72.1 µM | M14 > 100 µM | HOP-92 20.7 µM | SNB-19 27 µM | A498 70.6 µM | SK-MEL-2 25.9 µM | OVCAR-8 35.6 µM | HT-29 76.7 µM | U-251 18.5 µM | NCI-H460 43.7 µM | HCT-116 25.8 µM | SNB-75 24.8 µM | K562 32.7 µM | CCRF-CEM 30.4 µM | MCF7 38.5 µM | RPMI-8226 35.6 µM | SR 30.4 µM | UO-31 33.7 µM | RXF 393 19 µM | NCI-H226 71.1 µM | MDA-MB-231 19.7 µM | A549 > 100 µM | OVCAR-5 37.5 µM | NCI-H522 15.2 µM | HOP-62 23.7 µM | BT-549 22.3 µM | MDA-MB-435 51.3 µM | OVCAR-4 23 µM | SN12C 25.2 µM | SF-295 68.1 µM | PC-3 18.5 µM | DU-145 42.8 µM | UACC-62 27.2 µM | SK-OV-3 > 100 µM | NCI-H23 21.6 µM | HL-60 41.8 µM | KM12 66.8 µM | NCI/ADR-RES 27 µM | SK-MEL-5 51.8 µM | Hs-578T 21.7 µM | CAKI-1 28.7 µM | LOX IMVI 33.3 µM | 786-0 19.5 µM | MOLT-4 31.2 µM | UACC-257 77.1 µM | SF-268 20.3 µM | IGROV-1 > 100 µM | ACHN 43.8 µM | HCC 2998 58.9 µM | COLO 205 51.2 µM | OVCAR-3 19.4 µM

O=C1C=CC(=O)N1c1ccc(I)cc1
inactive: Malme-3M 17.9 µM | EKVX 23.3 µM | SK-MEL-28 18.5 µM | T47D 25.6 µM | SF-539 22.5 µM | MDA-N 15.2 µM | SW-620 7.08 µM | TK-10 16.4 µM | M14 16.7 µM | HOP-92 21.3 µM | SNB-19 > 44.8 µM | A498 20.2 µM | SK-MEL-2 20.4 µM | OVCAR-8 31.6 µM | HT-29 18.9 µM | U-251 23.6 µM | NCI-H460 33.5 µM | HCT-116 15.6 µM | SNB-75 21.8 µM | K562 6.01 µM | CCRF-CEM 3.1 µM | MCF7 17.4 µM | RPMI-8226 6.11 µM | SR 5.77 µM | UO-31 18.9 µM | RXF 393 17.9 µM | NCI-H226 22.9 µM | MDA-MB-231 23.6 µM | A549 22.9 µM | OVCAR-5 23.6 µM | NCI-H522 18.6 µM | HOP-62 15.7 µM | BT-549 19 µM | MDA-MB-435 16.4 µM | OVCAR-4 20.2 µM | SN12C 20.6 µM | SF-295 20.5 µM | PC-3 18.3 µM | DU-145 19.2 µM | UACC-62 17.5 µM | SK-OV-3 16.5 µM | NCI-H23 23.8 µM | HL-60 2.84 µM | KM12 21.4 µM | NCI/ADR-RES 29.9 µM | SK-MEL-5 18.6 µM | Hs-578T 23.4 µM | CAKI-1 17.5 µM | LOX IMVI 19.9 µM | 786-0 7.53 µM | MOLT-4 2.56 µM | UACC-257 18 µM | SF-268 27 µM | IGROV-1 24.9 µM | ACHN 17.3 µM | HCC 2998 19.1 µM | COLO 205 6.18 µM | OVCAR-3 20.8 µM
11.5 µM: HCT-15
